# In patent publication US7153863B2, “Therapeutic compounds based on pyrazolopyridline derivatives” (SmithKline Beecham Corporation, priority 2002, dated 2006):
# Tested on: HSV-1
# Test: HSV-1 infection of Vero 76 cells, HSV DNA hybridization capture assay
# Assay type: cell-based, herpes simplex virus 1
# Settings: Human alphaherpesvirus 1; HSV-1 (MOI=0.001) in Vero 76 cells, 40–48 hours at 37° C., viral DNA by hybridization/chemiluminescence
# Procedure: Vero 76 cells were maintained in MEM with Earle's salts, L-glutamine, 8% FBS (Hyclone, A-1111-L) and 100 units/mL Penicillin-100 μg/mL Streptomycin. For assay conditions, FBS was reduced to 2%. Cells are seeded into 96-well tissue culture plates at a density of 5×10^4 cells/well after being incubated for 45 min at 37° C. in the presence of HSV-1 or HSV-2 (MOI=0.001). Test compounds are added to the wells and the plates are incubated at 37° C. for 40–48 hours. Cell lysates are prepared as follows: media was removed and replaced with 150 μL/well 0.2 N NaOH with 1% Igepal CA 630 or NP-40. Plates were incubated up to 14 days at room temperature in a humidified chamber to prevent evaporation.
# For the detection probe, a gel-purified, digoxigenin-labeled, […] PCR fragment of the HSV UL-15 sequence was utilized. PCR conditions included 0.5 μM primers, 180 μM dTP, 20 μM dUTP-digoxigenin (Boehringer Mannheim 1558706), 200 μM each of dATP, dCTP, and dGTP, 1×PCR Buffer II (Perkin Elmer), 2.5 mM MgCl2, 0.025 units/μL of AmpliTaq Gold polymerase (Perkin Elmer), and 5 ng of gel-purified HSV DNA per 100 μL Extension conditions were 10 min at 95° C., followed by 30 cycles of 95° C. for 1 min, 55° C. for 30 sec, and 72° C. for 2 min. The amplification was completed with a 10-min incubation at 72° C. Primers were selected to amplify a 728 bp probe spanning a section of the HSV1 UL15 open reading frame (nucleotides 249–977). Single-stranded transcripts were purified with Promega M13 Wizard kits. The final product was mixed 1:1 with a mixture of 6 M GuSCN, 100 mM EDTA and 200 μg/mL herring sperm DNA and stored at 4° C.
# The capture DNA plasmid (HSV UL13 region in pUC) was linearized by cutting with Xba I, denatured for 15 min at 95° C. and diluted immediately into Reacti-Bind DNA Coating Solution (Pierce, 17250, diluted 1:1 with TE buffer, pH 8) at 1 ng/μL 75 μL/well were added to Corning (#3922 or 9690) white 96-well plates and incubated at room temperature for at least 4 hrs before washing twice with 300 μL/well 0.2×SSC/0.05% Tween-20 (SSC/T buffer). The plates were then incubated overnight at room temperature with 150 μL/well 0.2 N NaOH, 1% IGEPAL and 10 μg/mL herring sperm DNA.
# Twenty-seven (27) μL of cell lysate was combined with 45 μL of hybridization solution (final concentration: 3M GuSCN, 50 mM EDTA, 100 μg/ml salmon sperm DNA, 5× Denhardt's solution, 0.25×APE, and 5 ng of the digoxigenin-labeled detection probe). APE is 1.5 M NH4-acetate, 0.15 M ammonium phosphate monobasic, and 5 mM EDTA adjusted to pH 6.0. Mineral oil (50 μL) was added to prevent evaporation. The hybridization plates were incubated at 95° C. for 10 minutes to denature the DNA, then incubated at 42° C. overnight. The wells were washed 6× with 300 μL/well SSC/T buffer then incubated with 75 μL/well anti-digoxigenin-HRP-conjugated antibody (Boehringer Mannheim 1207733, 1:5000 in TE) for 30 min at room temperature. The wells were washed 6× with 300 μL/well with PBS/0.05% Tween-20 before 75 μL/well SuperSignal LBA substrate (Pierce) was added. The plates were incubated at room temperature for 30 minutes and chemiluminescence was measured in a Wallac Victor reader.
# The following results were obtained for HSV-1.
row,Compound,IC50 [µM]
1,"CCCc1nn2ccccc2c1-c1ccnc(F)c1 [Example 1, 3-(2-Fluoropyridin-4-yl)-2-propylpyrazolo[1,5-a]pyridine]",> 40
2,"CCCc1nn2ccccc2c1-c1ccnc(NC2CCCC2)c1 [Example 2, N-Cyclopentyl-4-(2-propylpyrazolo[1,5-a]pyridin-3-yl)pyridin-2-amine]",8
3,"CCCc1nn2c(Cl)cccc2c1-c1ccnc(F)c1 [Example 3, 7-Chloro-3-(2-fluoropyridin-4-yl)-2-propylpyrazolo[1,5-a]pyridine]",37
4,"CCCc1nn2c(NC3CCCC3)cccc2c1-c1ccnc(NC2CCCC2)c1 [Example 4, N-Cyclopentyl-3-[2-(cyclopentylamino)pyridin-4-yl]-2-propylpyrazolo[1,5-a]pyridin-7-amine]",0.9
5,"CSc1nccc(-c2c(CC(C)C)nn3ccccc23)n1 [Example 5, 2-Isobutyl-3-[2-(methylthio)pyrimidin-4-yl]pyrazolo[1,5-a]pyridine]",21
6,"CC(C)Cc1nn2ccccc2c1-c1ccnc([S+](C)[O-])n1 (centres unmarked) [Example 6, 2-Isobutyl-3-[2-(methylsulfinyl)pyrimidin-4-yl]pyrazolo[1,5-a]pyridine]",24
7,"CC(C)Cc1nn2ccccc2c1-c1ccnc(NC2CCCC2)n1 [Example 7, N-Cyclopentyl-4-(2-isobutylpyrazolo[1,5-a]pyridin-3-yl)pyrimidin-2-amine]",18
8,"CSc1cccc2c(-c3ccnc(NC4CCCC4)n3)c(CC(C)C)nn12 [Example 8, N-Cyclopentyl-4-[2-isobutyl-7-(methylthio)pyrazolo[1,5-a]pyridin-3-yl]pyrimidin-2-amine]",3.8
9,"CC(C)Cc1nn2c([S+](C)[O-])cccc2c1-c1ccnc(NC2CCCC2)n1 (centres unmarked) [Example 9, N-Cyclopentyl-4-[2-isobutyl-7-(methylsulfinyl)pyrazolo[1,5-a]pyridin-3-yl]pyrimidin-2-amine]",1.9
10,"CC(C)Cc1nn2c(NC3CCCC3)cccc2c1-c1ccnc(NC2CCCC2)n1 [Example 10, N-Cyclopentyl-3-[2-(cyclopentylamino)pyrimidin-4-yl]-2-isobutylpyrazolo[1,5-a]pyridin-7-amine]",0.5
11,"CSc1nccc(-c2c(C=O)nn3ccccc23)n1 [Example 12, 3-[2-(Methylthio)pyrimidin-4-yl]pyrazolo[1,5-a]pyridine-2-carbaldehyde]",> 5
12,"OC(c1ccccc1)c1nn2ccccc2c1-c1ccnc(NC2CCCC2)n1 (centres unmarked) [Example 14, {3-[2-(Cyclopentylamino)-4-pyrimidinyl]pyrazolo[1,5-a]pyridin-2-yl}(phenyl)methanol]",2.5
13,"O=C(c1ccccc1)c1nn2ccccc2c1-c1ccnc(NC2CCCC2)n1 [Example 15, {3-[2-(Cyclopentylamino)-4-pyrimidinyl]pyrazolo[1,5-a]pyridin-2-yl}(phenyl)methanone]",7
14,"O=C(c1ccccc1)c1nn2c(NC3CCCC3)cccc2c1-c1ccnc(NC2CCCC2)n1 [Example 16, {7-(Cyclopentylamino)-3-[2-(cyclopentylamino)-4-pyrimidinyl]-pyrazolo[1,5-a]pyridin-2-yl}(phenyl)methanone]",0.4
15,"c1ccc(Cc2nn3ccccc3c2-c2ccnc(NC3CCCC3)n2)cc1 [Example 17, 4-(2-Benzylpyrazolo[1,5-a]pyridin-3-yl)-N-cyclopentyl-2-pyrimidinamine]",2
16,"c1ccc(Cc2nn3c(NC4CCCC4)cccc3c2-c2ccnc(NC3CCCC3)n2)cc1 [Example 19, N-{4-[2-Benzyl-7-(cyclopentylamino)pyrazolo[1,5-a]pyridin-3-yl]-2-pyrimidinyl}-N-cyclopentylamine]",0.8

row,Compound,IC50 [µM]
1,"COCc1nn2ccccc2c1-c1ccnc(NC2CCCC2)n1 [Example 20, N-Cyclopentyl-4-[2-(methoxymethyl)pyrazolo[1,5-a]pyridin-3-yl]-2-pyrimidinamine]",15
2,"COCc1nn2c(SC)cccc2c1-c1ccnc(NC2CCCC2)n1 [Example 21, N-Cyclopentyl-4-[2-(methoxymethyl)-7-(methylsulfanyl)pyrazolo[1,5-a]pyridin-3-yl]-2-pyrimidinamine]",4.6
3,"COCc1nn2c(NC3CCCC3)cccc2c1-c1ccnc(NC2CCCC2)n1 [Example 22, N-Cyclopentyl-3-[2-(cyclopentylamino)-4-pyrimidinyl]-2-(methoxymethyl)pyrazolo[1,5-a]pyridin-7-amine]",1.2
4,"c1cc(NC2CCCC2)n2nc(CCCN3CCCC3)c(-c3ccnc(NC4CCCC4)n3)c2c1 [Example 23, N-Cyclopentyl-3-[2-(cyclopentylamino)-4-pyrimidinyl]-2-[3-(1-pyrrolidinyl)propyl]pyrazolo[1,5-a]pyridin-7-amine]",> 2.5
5,"CSc1nccc(-c2c(CNC(C)C)nn3ccccc23)n1 [Example 24, N-({3-[2-(Methylsulfanyl)-4-pyrimidinyl]pyrazolo[1,5-a]pyridin-2-yl}methyl)-2-propanamine]",2.1
6,"CC(C)NCc1nn2ccccc2c1-c1ccnc(NC2CCCC2)n1 [Example 25, N-Cyclopentyl-4-{2-[(isopropylamino)methyl]pyrazolo[1,5-a]pyridin-3-yl}-2-pyrimidinamine]",27
7,"CC(C)NCc1nn2c(NC3CCCC3)cccc2c1-c1ccnc(NC2CCCC2)n1 [Example 26, N-Cyclopentyl-3-[2-(cyclopentylamino)-4-pyrimidinyl]-2-[(isopropylamino)methyl]pyrazolo[1,5-a]pyridin-7-amine]",> 2.5
8,"CC(C)NCCCc1nn2c(Cl)cccc2c1-c1ccnc(NC2CCCC2)n1 [Example 27, 4-{7-Chloro-2-[3-(isopropylamino)propyl]pyrazolo[1,5-a]pyridin-3-yl}-N-cyclopentyl-2-pyrimidinamine]",23
9,"CC(C)NCCCc1nn2c(NC3CCCC3)cccc2c1-c1ccnc(NC2CCCC2)n1 [Example 28, N-Cyclopentyl-3-[2-(cyclopentylamino)-4-pyrimidinyl]-2-[3-(isopropylamino)propyl]pyrazolo[1,5-a]pyridin-7-amine]",> 5
10,"COCCOCc1nn2c(Cl)cccc2c1-c1ccnc(NC2CCCC2)n1 [Example 29, 4-{7-Chloro-2-[(2-methoxyethoxy)methyl]pyrazolo[1,5-a]pyridin-3-yl}-N-cyclopentyl-2-pyrimidinamine]",23
11,"COCCNc1cccc2c(-c3ccnc(NC4CCCC4)n3)c(COCCOC)nn12 [Example 30, 3-[2-(Cyclopentylamino)-4-pyrimidinyl]-2-[(2-methoxyethoxy)methyl]-N-(2-methoxyethyl)pyrazolo[1,5-a]pyridin-7-amine]",4.7
12,"COCCOCc1nn2c(NC3CCCC3)cccc2c1-c1ccnc(NC2CCCC2)n1 [Example 31, N-Cyclopentyl-3-[2-(cyclopentylamino)-4-pyrimidinyl]-2-[(2-methoxyethoxy)methyl]pyrazolo[1,5-a]pyridin-7-amine]",1.5
13,"CC(C)c1nn2ccccc2c1-c1ccnc(NC2CCCC2)n1 [Example 32, N-Cyclopentyl-4-(2-isopropylpyrazolo[1,5-a]pyridin-3-yl)pyrimidin-2-amine]",4.4
14,"CC(C)c1nn2c(NC3CCCC3)cccc2c1-c1ccnc(NC2CCCC2)n1 [Example 33, N-Cyclopentyl-3-[2-(cyclopentylamino)pyrimidin-4-yl]-2-isopropylpyrazolo[1,5-a]pyridin-7-amine]",2
15,"CSc1nccc(-c2c(C3CC3)nn3ccccc23)n1 [Example 34, 2-Cyclopropyl-3-[2-(methylthio)pyrimidin-4-yl]pyrazolo[1,5-a]pyridine]",> 40
16,"c1ccn2nc(C3CC3)c(-c3ccnc(NC4CCCC4)n3)c2c1 [Example 35, N-Cyclopentyl-4-(2-cyclopropylpyrazolo[1,5-a]pyridin-3-yl)pyrimidin-2-amine]",3.1
